{
  "source": "patent US20250073220A1",
  "about": "“ORAL SOLUTION COMPRISING LENALIDOMIDE” (A FINE HOUSE S.A., priority 2021, published 2025)",
  "key": {"[1]": {"assay": "Precipitation after preparation of liquid lenalidomide compositions", "type": "physicochemical", "conditions": "a few minutes after lenalidomide was dissolved in an aqueous buffer at pH between 1.0 and 3.5", "experimental": "A composition was prepared according to example 23 of WO 1998/03502. The solution contained 5.0 g lenalidomide, 22.5 g sodium chloride, 300.0 g phosphate buffer with pH 7.4 and demineralized water. The pH of the final composition was 7.4.\nSimilar results (i.e. precipitation) were obtained a few minutes after lenalidomide was dissolved in an aqueous buffer at pH between 1.0 and 3.5.\nThus, the composition of Trial 0 was not subjected to the stability study.\nThe composition of trial 4 was not subjected to the stability study."}, "[2]": {"conditions": "0.1 N HCl aqueous solution (pH around 1); cited from earlier work"}},
  "data": [
    {"compound": "Nc1cccc2c1CN(C1CCC(=O)NC1=O)C2=O", "note": "(racemic) [Lenalidomide, 1-oxo-(2,6-dioxopiperidin-3-yl)-4-aminoisoindoline]", "values": [
      {"measurement": "precipitation after dissolution", "setting": "[1]", "value": "precipitation"},
      {"measurement": "solubility", "setting": "[2]", "value": 18.0, "unit": "mg/mL"}
    ]}
  ]
}
